Results published in patent publication US9255103B2, “Substituted pyrazolo[1,5-a]pyrazines as mGluR5 receptor modulators” (Vanderbilt University, priority 2010, dated 2016).

System: male Sprague-Dawley rats
Experiment: Reversal of amphetamine-induced hyperlocomotion in rats
Assay type: in vivo, rat
Conditions: oral gavage, doses as in FIG. 4; amphetamine sulfate 1 mg/kg sc; data only in FIG. 4
Method: Locomotor activity was assessed as mean distance traveled (cm) in standard 16×16 photocell testing chambers measuring 43.2 cm (Length)×43.2 cm (Width)×30.5 cm (Height) (Med Associates, St. Albans, Vt.). Animals were habituated to individual activity chambers for at least 30 min prior to drug administration. Following administration of drug or vehicle, activity was recorded for a 90 minute time period. Data was expressed as the mean (±SEM) distance traveled recorded in 5 min intervals over the test period. The data was analyzed using repeated measures analysis of variance (ANOVA) followed by post-hoc testing using Dunnett's test, when appropriate. A difference was considered significant when p≦0.05. […]
The animals were habituated in Smart Open Field locomotor activity test chambers (Hamilton-Kinder, San Diego, Calif.) with 16×16 photobeams to automatically record locomotor activity for 30 min and then dosed with vehicle or test compound. […] At 60 min, all rats were injected subcutaneously with 1 mg/kg amphetamine or vehicle and then monitored for an additional 60 min. Animals are monitored for a total of 120 minutes. Data are expressed as changes in ambulation defined as total number of beam breaks per 5 min periods.
The data for the dose-response studies were analyzed by a between-group analysis of variance. […]

O=C(c1ccc(F)cc1)N1CCn2nc(COc3ccccc3)cc2C1 [FPPPM, (4-fluorophenyl)(2-(phenoxymethyl)-6,7-dihydropyrazolo[1,5-a]pyrazin-5(4H)-yl)methanone]
reversal of amphetamine-induced hyperlocomotion: reversal of amphetamine-induced hyperlocomotion
